# Tests used:
# [1] = target: Streptokinase (Homo sapiens); assay: Chromogenic substrate assay, Ki determination, Streptokinase; format: biochemical; details: substrate S-2251
# Procedure: (§1) The inhibitor (I) constants (Ki) were determined for the inhibition of a series of human enzymes (FXa, thrombin, trypsin, plasmin, protein Ca, streptokinase, tPA, and urokinase) by each compound. Chromogenic substrate assays were performed using a Labsystems IEMS (Cergy Pontoise, France) microtiter plate reader. In each assay, the compound was tested at a minimum of seven concentrations in duplicate to obtain an inhibition curve. Assays were performed according to the following general procedure. In a 96-well microtiter plate, 25 μL of compound, inhibitor solution or buffer was added to 50 μL of substrate. A volume of 25 μL of enzyme solution was added just before the plate was placed in the microtiter plate reader for 1 h at 37 °C. The hydrolysis of the substrate yields p-nitroaniline, which was continuously monitored spectrophotometrically at 405 nm. Data were collected and the initial rate of substrate hydrolysis [Vo (mOD/minute)] was calculated. Following Michaelis-Menten kinetics, the affinity of the enzyme for the substrate, in the absence of the inhibitor (Km) and in the presence of an inhibitor (Kp), was determined to be the negative inverse x-intercept of Lineweaver–Burk plots. The dissociation constant for inhibition (Ki) was calculated using the following equation: Ki = (Km·[I])/(Kp − Km) as described by Williams and Morrison[40].
# Protein Ca = Protein Ca (Homo sapiens, UniProt P04070); assay: Chromogenic substrate assay, Ki determination, Protein Ca; format: biochemical; details: substrate S-2366
# Procedure: as §1
# [2] = test system: mouse platelet-rich plasma (PRP); assay: In vitro platelet aggregation induced by thrombin; format: cell-based; details: thrombin 3 U/mL
# Procedure: (§2) To study the effects of compounds 1–5 on platelet aggregation, we used mouse platelet-rich plasma (PRP) induced with various agonists as an in vitro model.
# (§3) Figure 5 Effects of compounds 1–4 on agonist-induced platelet aggregation in vitro. Platelet-rich plasma (PRP) was preincubated for 5 min with different concentrations of compounds 1–4, or vehicle. Platelet aggregation was initiated with ADP (A, 10 µM), U46619 (B, 6 µM), or thrombin (C, 3 U/mL). D = 0.2% DMSO used as the vehicle control. Data are presented as means ± SD of three independent experiments. ^* p < 0.05 vs. vehicle alone, analyzed by one-way ANOVA, followed by Tukey multiple comparison testing.
# (§4) The in vitro platelet aggregation assay was performed according to a previously reported method, [39]. Platelet rich plasma (PRP) was incubated with the indicated concentration of each compound in DMSO for 1, 3, 5, or 10 min. Samples were subsequently stimulated by ADP (10 μM), U46619 (6 μM), or thrombin (3 U/mL). Platelet aggregation was recorded using an aggregometer (Chronolog, Havertown, PA, USA).
# Plasmin = Plasmin (Homo sapiens, UniProt P00747); assay: Chromogenic substrate assay, Ki determination, Plasmin; format: biochemical; details: substrate S-2251
# Procedure: as §1
# α-Thrombin = target: T1, α-Thrombin (Homo sapiens, UniProt P00734); assay: Chromogenic substrate assay, Ki determination, α-Thrombin; format: biochemical; details: substrate S-2238
# T1 construct: FXa converts prothrombin to thrombin; purchased Haematologic Technologies (Essex Junction, VT, USA)
# Procedure: as §1
# C57BL/6 mice [3] = assay: Ex vivo coagulation assay, aPTT; format: in vivo, mouse; details: intravenous, 38 to 193 µg/kg
# Procedure: (§5) To evaluate the effects of compounds 1–5 on coagulation parameters ex vivo, we measured the influence of the isolated compounds on activated partial thromboplastin time (aPTT) and prothrombin time (PT). […] The average circulating blood volume for mice is 72 mL/kg[21]. Because the average weight of mice used in this study was 27 g and the average blood volume was 2 mL, the dose of compounds 1–5 (38.6, 77.2, or 193.1 µg/kg) equaled a peripheral blood concentration of approximately 1, 2, and 5 µM, respectively.
# Figure 4 Effects of compounds 1–4 on clotting and bleeding time. […] Fifteen minutes after the last administration, blood samples were collected and in vivo aPTT was measured. […] Accumulated bleeding times (including periods of re-bleeding) were recorded. […] Data are presented as means ± SD of three independent experiments. *p < 0.05 vs. vehicle alone, analyzed by one-way ANOVA, followed by Tukey multiple comparison testing.
# Fifteen min after the administration of each compound or saline, blood was sampled, and plasma was obtained by centrifuging at 2,000 × g for 10 min at room temperature in order to measure prothrombin time (PT) and activated partial thromboplastin time (aPTT). The aPTT and PT were determined using a Thrombotimer (Behnk Elektronik, Norderstedt, Germany), according to the manufacturer’s instructions and as described previously. […] The clotting times were recorded. […]
# [4] = test system: mouse platelet-rich plasma (PRP); assay: In vitro platelet aggregation induced by ADP; format: cell-based; details: ADP 10 µM
# Procedure: as §2, §3, §4
# Trypsin = assay: Chromogenic substrate assay, Ki determination, Trypsin; format: biochemical, human; details: substrate S-2222
# Procedure: as §1
# [5] = test system: mouse platelet-rich plasma (PRP); assay: In vitro platelet aggregation induced by U46619; format: cell-based; details: U46619 6 µM
# Procedure: as §2, §3, §4
# FXa = target: T2, FXa (Homo sapiens, UniProt P00742); assay: Chromogenic substrate assay, Ki determination, Factor Xa; format: biochemical; details: substrate S-2765 (Table 3); mean ± SD (n = 5)
# T2 construct: purchased Haematologic Technologies (Essex Junction, VT, USA)
# Procedure: as §1
# Urokinase = Urokinase (Homo sapiens, UniProt P00749); assay: Chromogenic substrate assay, Ki determination, Urokinase; format: biochemical; details: substrate S-2444
# Procedure: as §1
# C57BL/6 mice [6] = assay: In vivo clotting time (aPTT after four daily injections); set-up: species or system mouse; details: daily intravenous injection for four consecutive days
# Procedure: as §5
# Figure 4 Effects of compounds 1–4 on clotting and bleeding time. (A) One hour after administration (intravenous injection) of compound 1 (white box), 2 (light gray box), 3 (dark gray box), or 4 (black box), blood was collected from the mice and platelet-poor plasma (PPP) was obtained by centrifugation at 2,000 × g for 10 min at room temperature to test ex vivo activated partial thromboplastin time (aPTT). (B) Each group received a daily intravenous injection of the indicated compound for four consecutive days. Fifteen minutes after the last administration, blood samples were collected and in vivo aPTT was measured. […] Accumulated bleeding times (including periods of re-bleeding) were recorded. […] Data are presented as means ± SD of three independent experiments. *p < 0.05 vs. vehicle alone, analyzed by one-way ANOVA, followed by Tukey multiple comparison testing.
# tPA = tPA (Homo sapiens, UniProt P00750); assay: Chromogenic substrate assay, Ki determination, tPA; format: biochemical; details: substrate S-2228
# Procedure: as §1
# bleeding time models = test system: bleeding time models; set-up: method as in PMID 20139357, PMID 15748242; details: antithrombotic doses below the ED50 required for antithrombotic efficacy; cited from earlier work
# platelet aggregation = test system: platelet aggregation; set-up: method as in PMID 20139357; details: cited from earlier work
# thrombin = thrombin (Homo sapiens, UniProt P00734); set-up: method as in PMID 20139357; details: cited from earlier work
# rat = test system: rat; set-up: method as in PMID 20139357, PMID 15748242; details: higher doses, rat tail-bleeding time model; cited from earlier work
# C57BL/6 mice [7] = assay: FeCl3-induced arterial thrombosis mouse model; format: in vivo; details: FeCl3 injury, tirofiban 0.2 or 0.4 mg/kg (dose for this value not stated)
# tPA, sequence (P00750 36-562): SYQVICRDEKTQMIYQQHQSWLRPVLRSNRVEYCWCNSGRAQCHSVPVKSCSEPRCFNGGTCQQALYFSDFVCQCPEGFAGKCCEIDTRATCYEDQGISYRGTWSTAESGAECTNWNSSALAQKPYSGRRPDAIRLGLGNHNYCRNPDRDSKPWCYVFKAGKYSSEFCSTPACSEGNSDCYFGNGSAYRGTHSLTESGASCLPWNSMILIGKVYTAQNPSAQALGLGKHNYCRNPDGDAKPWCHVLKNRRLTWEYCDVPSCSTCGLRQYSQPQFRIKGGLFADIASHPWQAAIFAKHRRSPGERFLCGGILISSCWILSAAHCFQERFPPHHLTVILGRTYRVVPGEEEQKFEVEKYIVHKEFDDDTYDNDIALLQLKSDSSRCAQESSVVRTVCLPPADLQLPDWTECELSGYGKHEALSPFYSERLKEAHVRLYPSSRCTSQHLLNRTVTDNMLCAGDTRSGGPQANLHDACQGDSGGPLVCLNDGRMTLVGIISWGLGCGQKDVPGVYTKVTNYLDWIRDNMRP
# T2 sequence (P00742 235-488 limits assumed): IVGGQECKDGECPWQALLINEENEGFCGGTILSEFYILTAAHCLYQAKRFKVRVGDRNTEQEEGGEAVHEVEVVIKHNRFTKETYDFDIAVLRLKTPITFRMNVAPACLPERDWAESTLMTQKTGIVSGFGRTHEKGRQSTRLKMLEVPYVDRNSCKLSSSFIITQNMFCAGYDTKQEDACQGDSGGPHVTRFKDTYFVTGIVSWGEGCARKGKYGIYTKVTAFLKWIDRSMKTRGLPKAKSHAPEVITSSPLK
# T2 sequence (P00742 41-179 limits assumed): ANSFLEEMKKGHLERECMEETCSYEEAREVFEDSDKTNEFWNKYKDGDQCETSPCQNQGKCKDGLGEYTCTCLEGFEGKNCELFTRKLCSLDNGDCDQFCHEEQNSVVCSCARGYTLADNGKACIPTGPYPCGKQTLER
# Plasmin, sequence (P00747 581-810 limits assumed): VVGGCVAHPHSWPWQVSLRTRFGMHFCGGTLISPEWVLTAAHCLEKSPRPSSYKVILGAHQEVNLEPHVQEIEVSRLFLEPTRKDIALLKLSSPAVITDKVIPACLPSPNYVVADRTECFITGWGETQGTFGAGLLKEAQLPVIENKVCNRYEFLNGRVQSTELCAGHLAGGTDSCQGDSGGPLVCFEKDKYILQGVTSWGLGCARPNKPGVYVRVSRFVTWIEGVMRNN
# Plasmin, sequence (P00747 97-580 limits assumed): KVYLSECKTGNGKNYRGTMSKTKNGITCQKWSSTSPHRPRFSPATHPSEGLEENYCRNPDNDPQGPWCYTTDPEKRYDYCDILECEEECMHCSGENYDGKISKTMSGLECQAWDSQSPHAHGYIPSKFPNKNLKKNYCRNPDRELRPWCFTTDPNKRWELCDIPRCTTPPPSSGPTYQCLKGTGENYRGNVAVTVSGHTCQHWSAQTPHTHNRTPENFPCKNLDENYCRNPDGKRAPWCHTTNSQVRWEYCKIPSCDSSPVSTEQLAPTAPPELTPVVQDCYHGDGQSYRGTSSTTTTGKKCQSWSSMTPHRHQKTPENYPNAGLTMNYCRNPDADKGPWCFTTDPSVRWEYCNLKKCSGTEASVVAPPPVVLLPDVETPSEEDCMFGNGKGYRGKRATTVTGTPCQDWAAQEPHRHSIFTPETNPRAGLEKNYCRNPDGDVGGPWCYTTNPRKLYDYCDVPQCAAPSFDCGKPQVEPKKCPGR
# Streptokinase (Homo sapiens), sequence (P00747 581-810 limits assumed): as the sequence (P00747 581-810 limits assumed) above
# Protein Ca, sequence (P04070 212-461 limits assumed): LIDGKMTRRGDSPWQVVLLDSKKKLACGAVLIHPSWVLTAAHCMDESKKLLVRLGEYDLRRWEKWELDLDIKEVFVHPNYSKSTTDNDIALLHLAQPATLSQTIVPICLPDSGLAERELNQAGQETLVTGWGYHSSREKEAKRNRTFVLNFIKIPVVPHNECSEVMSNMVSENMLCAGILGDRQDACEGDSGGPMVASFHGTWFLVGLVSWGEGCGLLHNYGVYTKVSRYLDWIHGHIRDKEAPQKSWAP
# Protein Ca, sequence (P04070 43-197 limits assumed): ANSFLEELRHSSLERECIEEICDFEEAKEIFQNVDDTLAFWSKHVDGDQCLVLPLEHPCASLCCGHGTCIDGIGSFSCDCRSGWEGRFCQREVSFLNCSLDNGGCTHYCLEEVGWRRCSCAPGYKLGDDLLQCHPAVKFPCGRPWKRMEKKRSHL
smiles,measurement,setting,value
"CC(=O)N/C=C/c1ccc2c(c1)O[C@H](c1ccc(O)c(O)c1)[C@@H](NC(C)=O)O2 [Compound 5, (2 R,3 S)-2-(3′,4′-dihydroxyphenyl)-3-acetylamino-7-(N-acetyl-2″-aminethylene)-1,4-benzodioxane]",Ki,[1],> 250 µM
same,Ki,Protein Ca,> 250 µM
same,thrombin-induced platelet aggregation,[2],did not affect
same,Ki,Plasmin,> 250 µM
same,Ki,α-Thrombin,> 250 µM
same,"activated partial thromboplastin time (aPTT), ex vivo",C57BL/6 mice [3],did not affect
same,platelet aggregation induced by ADP,[4],did not affect
same,Ki,Trypsin,> 250 µM
same,platelet aggregation induced by U46619,[5],did not affect
same,Ki,FXa,> 250 µM
same,Ki,Urokinase,> 250 µM
same,blood clotting time in vivo (anticoagulant effect),C57BL/6 mice [6],not
same,Ki,tPA,> 250 µM
O=C(NC[C@H]1CN(c2ccc(N3CCOCC3=O)cc2)C(=O)O1)c1ccc(Cl)s1 [rivaroxaban],bleeding times,bleeding time models,not significantly affected
same,"platelet aggregation induced by ADP, thrombin, or U46619",platelet aggregation,did not affect
same,generation of thrombin,thrombin,prolonged
same,bleeding times,rat,dose-dependently prolonged
CCCCS(=O)(=O)N[C@@H](Cc1ccc(OCCCCC2CCNCC2)cc1)C(=O)O [tirofiban],time to growth of large thrombi,C57BL/6 mice [7],61.1 ± 5.1 min

# — article PMC5554137, “Evaluation of novel factor Xa inhibitors from Oxya chinensis sinuosa with anti-platelet aggregation activity” (Scientific Reports, 2017)
